PMC9693052, “Synthesis of 2-Aminopyrimidine Derivatives and Their Evaluation as β-Glucuronidase Inhibitors: In Vitro and In Silico Studies” (Molecules, 2022)

`Cc1cccc(Nc2cc(Cl)nc(N)n2)c1C` [Compound 17, 6-Chloro-4-(N-(2,3-dimethyl)phenyl)-2,4-pyrimidinediamine] showed a melting point of 176 to 178 °C.
Work on `CCc1ccc(Nc2cc(Cl)nc(N)n2)cc1` [Compound 22, 6-Chloro-4-(N-(4-ethyl)phenyl)-2,4-pyrimidinediamine] yielded a melting point of 172 to 174 °C.
Work on `Nc1nc(Cl)cc(Nc2ccc(Br)cc2)n1` [Compound 10, 6-Chloro-4-(N-(4-bromo)phenyl)-2,4-pyrimidinediamine] yielded a melting point of 190 to 192 °C.
In the case of `CCCCc1ccc(Nc2cc(Cl)nc(N)n2)cc1` [Compound 23, 6-Chloro-4-(N-(4-n-butyl)phenyl)-2,4-pyrimidinediamine], the melting point is reported as 175 to 177 °C.
`Nc1nc(Cl)cc(Nc2ccc(Cl)cc2)n1` [Compound 12, 6-Chloro-4-(N-(4-chloro)phenyl)-2,4-pyrimidinediamine] gave a melting point of 182 to 184 °C.
For `COc1ccc(Nc2cc(Cl)nc(N)n2)cc1` [Compound 4, 6-Chloro-4-(N-(4-methoxy)phenyl)-2,4-pyrimidinediamine], the melting point was 222 to 223 °C.
Compound `COc1ccccc1Nc1cc(Cl)nc(N)n1` [Compound 2, 6-Chloro-4-(N-(2-methoxy)phenyl)-2,4-pyrimidinediamine] has a melting point of 240 to 242 °C.
With `Cc1ccc(Nc2cc(Cl)nc(N)n2)c(C)c1` [Compound 20, 6-Chloro-4-(N-(2,4-dimethyl)phenyl)-2,4-pyrimidinediamine] the melting point was 178 to 180 °C.
`Nc1nc(Cl)cc(N2CCN(c3ccccc3)CC2)n1` [Compound 25, 6-Chloro-6-(4-phenyl-1-piprazinyl)-2-pyrimidine amine] showed a melting point of 200 to 202 °C.
In the case of `CCCCCCCCOc1ccc(Nc2cc(Cl)nc(N)n2)cc1` [Compound 9], the melting point is reported as 185 to 187 °C.
With `Cc1ccc(C)c(Nc2cc(Cl)nc(N)n2)c1` [Compound 18, 6-Chloro-4-(N-(2,5-dimethyl)phenyl)-2,4-pyrimidinediamine] the melting point was 173 to 175 °C.
With `CC(C)c1ccccc1Nc1cc(Cl)nc(N)n1` [Compound 16, 6-Chloro-4-(N-(2-isopropyl)phenyl)-2,4-pyrimidinediamine] the melting point was 170 to 172 °C.
`COc1cc(Nc2cc(Cl)nc(N)n2)ccc1C` [Compound 6, 6-Chloro-4-(N-(3-methoxy-4-methyl)phenyl)-2,4-pyrimidinediamine] showed a melting point of 245 to 247 °C.
`CCCCOc1ccc(Nc2cc(Cl)nc(N)n2)cc1` [Compound 8, 6-Chloro-4-(N-(4-n-butoxy)phenyl)-2,4-pyrimidinediamine] showed a melting point of 180 to 182 °C.
`Nc1nc(Cl)cc(NCc2cccnc2)n1` [Compound 26, 6-Chloro-4-(N-(3-pyridinyl)methyl)-2,4-pyrimidinediamine] gave a melting point of 210 to 212 °C.
With `Nc1nc(Cl)cc(Nc2cccc(Cl)c2)n1` [Compound 13, 6-Chloro-4-(N-(3-chloro)phenyl)-2,4-pyrimidinediamine] the melting point was 177 to 179 °C.
Compound `COc1ccc(OC)c(Nc2cc(Cl)nc(N)n2)c1` [Compound 5, 6-Chloro-4-(N-(2,5-dimethoxy)phenyl)-2,4-pyrimidinediamine] has a melting point of 182 to 184 °C.
In the case of `Nc1nc(Cl)cc(Nc2cccc(Br)c2)n1` [Compound 11, 6-Chloro-4-(N-(3-bromo)phenyl)-2,4-pyrimidinediamine], the melting point is reported as 180 to 182 °C.
Work on `Nc1nc(Cl)cc(Nc2ccccc2)n1` [Compound 1, 6-Chloro-4-(N-phenyl)-2,4-pyrimidinediamine] yielded a melting point of 175 to 177 °C.
With `Cc1ccc(Cl)cc1Nc1cc(Cl)nc(N)n1` [Compound 19, 6-Chloro-4-(N-(5-chloro-2-methyl)phenyl)-2,4-pyrimidinediamine] the melting point was 175 to 177 °C.
Work on `Cc1ccc(Nc2cc(Cl)nc(N)n2)cc1C` [Compound 21, 6-Chloro-4-(N-(3,4-dimethyl)phenyl)-2,4-pyrimidinediamine] yielded a melting point of 179 to 180 °C.
`Nc1nc(Cl)cc(Nc2ccc(I)cc2)n1` [Compound 14, 6-Chloro-4-(N-(4-iodo)phenyl)-2,4-pyrimidinediamine] showed a melting point of 250 to 252 °C.
`Nc1nc(Cl)cc(NCc2ccco2)n1` [Compound 27, 6-Chloro-4-(N-(furan-2-yl)methyl)-2,4-pyrimidinediamine] showed a melting point of 140 to 142 °C.
With `Nc1nc(Cl)cc(N2CCNCC2)n1` [Compound 24, 4-Chloro-6-(1-piperazinyl)-2-pyrimidinylamine] the melting point was > 300 °C.
`COc1cccc(Nc2cc(Cl)nc(N)n2)c1` [Compound 3, 6-Chloro-4-(N-(3-methoxy)phenyl)-2,4-pyrimidinediamine] showed a melting point of 178 to 180 °C.
